# Measured values published in PMC6920794, “Evaluation of Novel Chalcone-Thiosemicarbazones Derivatives as Potential Anti-Leishmania amazonensis Agents and Its HSA Binding Studies” (Biomolecules, 2019).
# Legend:
# [1] = test system: L. amazonensis intracellular amastigotes; test: Intracellular amastigotes assay in infected macrophages; format: cell-based, Leishmania amazonensis
# Method: Peritoneal macrophages were obtained BALB/c mice with cold Roswell Park Memorial Institute (RPMI) 1640 medium (Sigma Aldrich, St. Louis, MO, USA) supplemented as above. The cell suspension was adjusted to 1 × 10^6 macrophage/mL and incubated in a LAB-TEK 8-chamber slide (Nunc, Roskilde, Denmark) at 310K and 5% CO2 for 1 h. Non-adherent cells were removed and stationary-phase L. amazonensis promastigotes were added at a 3:1 parasite/macrophage ratio. The cultures were incubated for a further 4 h, and free parasites were removed. The chambers were washed, and the monolayers were incubated with the compounds for 48 h. Infected macrophages incubated only in the culture medium were used as controls to compare with the infected treated macrophages. […] The cultures were fixed in methanol and stained with the hematological system Instant Prov (Newprov®, Curitiba, Brazil). The slides were examined by light microscopy, and the number of infected macrophages and the mean number of parasites per macrophage were determined in 100 cells counted. The experiments were performed twice in triplicate. The percentage of infected macrophages was calculated by dividing the number of infected macrophages by the total number of macrophages (infected and uninfected) counted on the slides, multiplied by 100. To determine the infection index, the percentage of infected macrophages was multiplied by the mean number of parasites per macrophage. The percentage inhibition of infection was calculated by multiplying the difference between the infection index of the control and the compound by 100 and dividing by the infection index (IF) of the control using the Equation (1):IF = % infected cells × amastigotes number/total number of macrophages(1) The IC50 ± SD (SD: standard deviation) values were obtained by a sigmoidal model using Origin 6.0 with statistical error limits up to 10%. All tests were conducted in duplicate for each concentration, and two independent assays were performed.
# [2] = test system: L. amazonensis promastigotes; test: Promastigote assay (MTT); format: cell-based, Leishmania amazonensis; details: Leishmania amazonensis, after 48 h of culture (table title)
# Method: Leishmania amazonensis (MHOM/BR/77/LTB0016) were regularly isolated from infected mice and maintained in culture as promastigotes through weekly passages in Schneider’s medium (Sigma Aldrich, St. Louis, MO, USA) supplemented with 10% (v/v) heat-inactivated fetal calf serum, penicillin (100 UI/mL), and streptomycin (100 µg/mL) at 299K. Parasites were maintained until the 10th passage. The Animal Ethics Committee of the Oswaldo Cruz Foundation (license number L026/2015) approved this study.
# Promastigotes of L. amazonensis (1 × 10^6 promastigotes/mL) in the 4th day on culture in the conditions described above were incubated with the chalcones serially diluted in culture medium (0.032% v/v DMSO at the highest concentration tested) on a 96-well cell culture plate (TPP™ test plate, Switzerland). The assayed concentrations ranged from 50 to 1.56 µM for all chalcone-thiosemicarbazones (5a–g) and for pentamidine (Sigma Aldrich, St. Louis, MO, USA). […] All compounds were analyzed in at least three experiments performed in triplicate. Pentamidine was used as the reference drug and diluted in the same concentrations used for 5a–g. The vehicle (DMSO) had no effect on the parasites.
# The antileishmanial activity was evaluated by adding 22 µL of 3-(4,5-dimethylthiazol-2-yl)-2-5diphenyltetrazolium bromide (MTT) at 5 mg/mL (Sigma Aldrich, St. Louis, MO, USA) to each well. After 2 h, 80 µL of DMSO was added and the optical density was determined at a wavelength of 570 nm in a microplate reader (µQuant Bio-Tek Instruments®, Winooski). The assays were carried out in triplicate in 96-well plates (Costar, New York, USA). The inhibition percentage was estimated by the comparison with the non-treated control. The values for the inhibitory concentration for 50% of the promastigotes (IC50) were calculated by a sigmoidal model.
smiles,measurement,setting,value
"NC(=S)N/N=C(\C=C\c1ccc(Cl)cc1)c1ccccc1 [Compound 5e, (1E,2E)-3-(4′-chlorophenyl)-1-phenylprop-2-en-1-one thiosemicarbazone]",IC50,"[1]; Leishmania amazonensis, Peritoneal macrophage, in Mus musculus, 48 h, L. amazonensis-infected murine peritoneal macrophages, 48 h of culture",4.47 ± 0.42 µM
same,Selectivity Index (SI),[1]; SI = LD50/IC50 intracellular amastigotes,7.27
same,IC50,[2],5.22 ± 0.75 µM
